Laboratory results reported in patent publication EP4682141A1, “TRICYCLIC COMPOUND” (ONO Pharmaceutical Co., Ltd., priority 2023, dated 2024).

Assays:
[1] = system: rat 5/6 kidney-removed model; experiment: in vivo drug efficacy on renal damage in rat 5/6 kidney-removed model; parameters: species or system Jcl: Wistar (Wistar) rats; conditions: after 8 weeks from the start of administration
From the text: The obtained urine sample was centrifuged, and the supernatant was subjected to measurement.

[2] = molecular target: T1, EP1 (Homo sapiens, UniProt P34995); experiment: agonist activity on human EP1 receptor (intracellular calcium concentration, EP1-CHO cells); format: cell-based
T1 construct: expressed in transfected cells; host or cells: CHO (EP1-CHO)
T1 sequence (P34995 1-402): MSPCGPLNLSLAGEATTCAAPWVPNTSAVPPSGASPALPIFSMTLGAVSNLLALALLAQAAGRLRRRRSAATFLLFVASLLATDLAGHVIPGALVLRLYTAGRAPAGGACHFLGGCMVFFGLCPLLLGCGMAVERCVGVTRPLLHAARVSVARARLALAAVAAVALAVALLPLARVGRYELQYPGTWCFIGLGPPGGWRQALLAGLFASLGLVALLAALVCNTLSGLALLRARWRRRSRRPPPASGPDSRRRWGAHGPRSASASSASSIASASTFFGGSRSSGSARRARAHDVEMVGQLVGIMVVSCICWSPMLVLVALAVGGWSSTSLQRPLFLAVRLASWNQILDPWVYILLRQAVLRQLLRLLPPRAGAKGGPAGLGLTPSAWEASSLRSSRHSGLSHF
Summary of the method: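 Calcium 6 dye loaded 1 h at room temperature in HBSS with 1% human serum albumin, 2 µmol/L indomethacin, 2.5 mmol/L probenecid, pH 7.4; agonists then added at various concentrations. Intracellular calcium read by fluorescence (ex 480/em 540 nm) in CHO cells expressing human EP1 or Chem1 cells expressing human EP3.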

| EC50 [2] | Compound | Amount of albumin excreted in urine mean ([1]; 0.01 mg/kg orally once a day for 8 weeks) | Amount of albumin excreted in urine mean ([1]; 0.03 mg/kg orally once a day for 8 weeks) |
| --- | --- | --- | --- |
| 3.5 µM | Cc1c(C(=O)O)ccc2c1O[C@H]1C[C@@H](O)[C@H](/C=C/C[C@@](C)(O)CCCC(F)(F)F)[C@H]1CC2 [Example 12, (1R,2R,3aS,10aR)-2-hydroxy-5-methyl-1-[(1E,4S)-8,8,8-trifluoro-4-hydroxy-4-methyl-1-octen-1-yl]-2,3,3a,9,10,10a-hexahydro-1H-benzo[b]cyclopenta[f]oxepine-6-carboxylic acid] | 66.09 mg/24 h | 44.16 mg/24 h |
| > 10 µM | CC(C)(c1ccccc1)C(O)/C=C/[C@H]1CC[C@@H]2Oc3c(ccc(C(=O)O)c3F)CC[C@@H]21 (stereo partly drawn) [Example 25-7, (1R,3aS,10aR)-5-fluoro-1-[(1E,3ξ)-3-hydroxy-4-methyl-4-phenyl-1-penten-1-yl]-2,3,3a,9,10,10a-hexahydro-1H-benzo[b]cyclopenta[f]oxepine-6-carboxylic acid] | – | – |
